{
  "source": "PubChem BioAssay (NCI)",
  "experiment_in_all_cases": "NCI-60 cell line screen, 384-well format",
  "key": {"OVCAR-5 ovarian": {"system": "OVCAR-5 ovarian"}, "HT29 colon": {"system": "HT29 colon"}, "T-47D breast": {"system": "T-47D breast"}, "U251 glioblastoma": {"system": "U251 glioblastoma"}, "M14 melanoma": {"system": "M14 melanoma"}, "MDA-MB-435 melanoma": {"system": "MDA-MB-435 melanoma"}, "DU-145 prostate": {"system": "DU-145 prostate"}, "EKVX NSCLC": {"system": "EKVX NSCLC"}, "SNB-75 CNS": {"system": "SNB-75 CNS"}, "RPMI-8226 leukemia": {"system": "RPMI-8226 leukemia"}, "OVCAR-8 ovarian": {"system": "OVCAR-8 ovarian"}, "UACC-62 melanoma": {"system": "UACC-62 melanoma"}, "A498 renal": {"system": "A498 renal"}},
  "note": "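At the GI50, growth is halved. TGI is the concentration that stops growth completely.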",
  "data": [
    {"smiles": "CC[C@H](NC(=O)[C@H](CS(=O)(=O)CC1CC1)N[C@@H](c1ccc(F)cc1)C(F)(F)F)C(=O)C(=O)NC1CC1", "values": [
      {"measurement": "GI50", "setting": "OVCAR-5 ovarian", "result": "> 100", "unit": "µM"},
      {"measurement": "TGI", "setting": "OVCAR-5 ovarian", "result": "> 100", "unit": "µM"},
      {"measurement": "GI50", "setting": "HT29 colon", "result": "> 100", "unit": "µM"},
      {"measurement": "TGI", "setting": "HT29 colon", "result": "> 100", "unit": "µM"},
      {"measurement": "GI50", "setting": "T-47D breast", "result": "> 59.9", "unit": "µM"},
      {"measurement": "TGI", "setting": "T-47D breast", "result": "> 100", "unit": "µM"},
      {"measurement": "GI50", "setting": "U251 glioblastoma", "result": "> 100", "unit": "µM"},
      {"measurement": "TGI", "setting": "U251 glioblastoma", "result": "> 100", "unit": "µM"},
      {"measurement": "GI50", "setting": "M14 melanoma", "result": "> 100", "unit": "µM"},
      {"measurement": "TGI", "setting": "M14 melanoma", "result": "> 100", "unit": "µM"},
      {"measurement": "GI50", "setting": "MDA-MB-435 melanoma", "result": "> 100", "unit": "µM"},
      {"measurement": "TGI", "setting": "MDA-MB-435 melanoma", "result": "> 100", "unit": "µM"},
      {"measurement": "GI50", "setting": "DU-145 prostate", "result": "> 100", "unit": "µM"},
      {"measurement": "TGI", "setting": "DU-145 prostate", "result": "> 100", "unit": "µM"},
      {"measurement": "GI50", "setting": "EKVX NSCLC", "result": 98.7, "unit": "µM"},
      {"measurement": "TGI", "setting": "EKVX NSCLC", "result": "> 100", "unit": "µM"},
      {"measurement": "GI50", "setting": "SNB-75 CNS", "result": "> 89.5", "unit": "µM"},
      {"measurement": "TGI", "setting": "SNB-75 CNS", "result": "> 100", "unit": "µM"},
      {"measurement": "GI50", "setting": "RPMI-8226 leukemia", "result": 77.2, "unit": "µM"},
      {"measurement": "TGI", "setting": "RPMI-8226 leukemia", "result": "> 100", "unit": "µM"},
      {"measurement": "GI50", "setting": "OVCAR-8 ovarian", "result": "> 100", "unit": "µM"},
      {"measurement": "TGI", "setting": "OVCAR-8 ovarian", "result": "> 100", "unit": "µM"},
      {"measurement": "GI50", "setting": "UACC-62 melanoma", "result": "> 100", "unit": "µM"},
      {"measurement": "TGI", "setting": "UACC-62 melanoma", "result": "> 100", "unit": "µM"},
      {"measurement": "GI50", "setting": "A498 renal", "result": "> 100", "unit": "µM"},
      {"measurement": "TGI", "setting": "A498 renal", "result": "> 100", "unit": "µM"}
    ]}
  ]
}
